This experiment relates to lesioned hindpaw of rats suffering from neuropathic pain. Nature of the experiment: Neuropathic pain, thermal stimulation model in the rat (Chung spinal nerve ligature), paw withdrawal latency. The conditions noted are these: for Paw Withdrawal Latent (seconds) for Lesioned Paw, mean ± SEM / Paw withdrawal latency, % change compared with vehicle control: thermal stimulation.

In the case of `CN1CC[C@]23c4c5ccc(O)c4O[C@H]2[C@@H](O)C=C[C@H]3[C@H]1C5` [Morphine], the “Paw Withdrawal Latent (seconds) for Lesioned Paw, mean ± SEM” value (“Paw Withdrawal Latent … mean ± SEM” for short) is 23.5 ± 6.4 s (128 mg/kg p.o., at 30 min); 40.5 ± 3.0 s (128 mg/kg p.o., at 1 h); 16.7 ± 6.0 s (128 mg/kg p.o., at 2 h); 21.7 ± 5.7 s (128 mg/kg p.o., at 4 h). For the same compound, the “Paw withdrawal latency, % change compared with vehicle control” value (“Paw withdrawal latency, % change” below) (128 mg/kg p.o., at 30 min) is “+104%”; the “Paw withdrawal latency, % change” value (128 mg/kg p.o., at 1 h) is “+185%”; the “Paw withdrawal latency, % change” value (128 mg/kg p.o., at 2 h) is on record as −7%; the “Paw withdrawal latency, % change” value (128 mg/kg p.o., at 4 h) is recorded as “+10%”.
With `CN1c2ccccc2C(NCCCCCCC(=O)O)c2ccc(Cl)cc2S1(=O)=O` (stereo not drawn) [Tianeptine, 7-[(3-chloro-6,11-dihydro-6-methyl-dibenzo[c,f][1,2]thiazepin-11-yl)amino]heptanoic acid S,S-dioxide], the “Paw Withdrawal Latent … mean ± SEM” value (3 mg/kg p.o., at 30 min) came to 12.7 ± 4.9 s; the “Paw Withdrawal Latent … mean ± SEM” value (3 mg/kg p.o., at 1 h) turned out to be 20.3 ± 5.3 s; the “Paw Withdrawal Latent … mean ± SEM” value (3 mg/kg p.o., at 2 h) is 20.6 ± 6.3 s; the “Paw Withdrawal Latent … mean ± SEM” value (3 mg/kg p.o., at 4 h) came to 13.8 ± 4.4 s; the “Paw Withdrawal Latent … mean ± SEM” value (10 mg/kg p.o., at 30 min) was determined as 19.2 ± 6.0 s; the “Paw Withdrawal Latent … mean ± SEM” value (10 mg/kg p.o., at 1 h) amounted to 15.1 ± 4.5 s. The “Paw Withdrawal Latent … mean ± SEM” value reads like this: (10 mg/kg p.o., at 2 h) 16.1 ± 5.1 s; (10 mg/kg p.o., at 4 h) 26.1 ± 5.4 s; (30 mg/kg p.o., at 30 min) 33.3 ± 5.5 s; (30 mg/kg p.o., at 1 h) 29.0 ± 7.3 s; (30 mg/kg p.o., at 2 h) 16.9 ± 5.0 s; (30 mg/kg p.o., at 4 h) 19.3 ± 5.8 s. The “Paw withdrawal latency, % change” value is recorded as “+10%” (3 mg/kg p.o., at 30 min); “+43%” (3 mg/kg p.o., at 1 h); “+15%” (3 mg/kg p.o., at 2 h); −30% (3 mg/kg p.o., at 4 h); “+67%” (10 mg/kg p.o., at 30 min); “+6%” (10 mg/kg p.o., at 1 h). For the same compound, the “Paw withdrawal latency, % change” value is, setting by setting: (10 mg/kg p.o., at 2 h) −10%; (10 mg/kg p.o., at 4 h) “+32%”; (30 mg/kg p.o., at 30 min) “+190%”; (30 mg/kg p.o., at 1 h) “+104%”; (30 mg/kg p.o., at 2 h) −6%; (30 mg/kg p.o., at 4 h) −2%. For the same compound, the “paw withdrawal latency after thermal stimulation in the lesioned paw (result in words)” value (30 mg/kg, at 30 minutes) is “significant increase”.

For the origin of these results see US20050227961A1, “Compositions and methods for treatment of neuropathic pain, fibromyalgia and chronic fatigue syndrome” (Vela Pharmaceuticals, Inc., priority 2004, published 2005).
